What all share (test): AK assay 384-well format, Prestwick library screening
One assay concerns E. coli. It counts as cell-based, Escherichia coli. Conditions: 50 μM final drug concentration; for fold induction at 50 µM: Escherichia coli, 3 h.
For the next assay, the system named is E. cloacae. It counts as cell-based, Enterobacter cloacae. Conditions: 50 μM final drug concentration; for fold induction at 50 µM: Enterobacter cloacae, 3 h.
The next assay deals with K. pneumoniae. The assay is classed as cell-based, Klebsiella pneumoniae. To be noted: 50 μM final drug concentration; for fold induction at 50 µM: Klebsiella pneumoniae, 3 h.
For a further assay, the system named is E. faecium. The assay is classed as cell-based, Enterococcus faecium. Conditions: 50 μM final drug concentration; for fold induction at 50 µM: Enterococcus faecium, 3 h.
For assay [1], the system named is S. aureus strain USA300-0114. It counts as cell-based, Staphylococcus aureus. Conditions: 50 μM final drug concentration; for fold induction at 50 µM: Staphylococcus aureus, USA300, 3 h.
The subject of assay [2] is A. baumannii strain 98-37-09. The assay is classed as cell-based, Acinetobacter baumannii. Conditions: 50 μM final drug concentration; for fold induction at 50 µM: Acinetobacter baumannii, 983709, 3 h.
A further assay deals with P. aeruginosa. The assay is classed as cell-based, Pseudomonas aeruginosa. Conditions: 50 μM final drug concentration; for fold induction at 50 µM: Pseudomonas aeruginosa, 3 h.
Where [3] appears, read: planktonic E. coli, cutoff for positive-scoring molecules 3-fold increase, read-out: AK-based Prestwick Library Screening Results, E. coli (increase in extracellular AK activity).
Setting [4] is: planktonic E. cloacae, cutoff for positive-scoring molecules 3-fold increase, read-out: AK-based Prestwick Library Screening Results, E. cloacae (increase in extracellular AK activity).
The mark [5] stands for this setting: planktonic K. pneumoniae, cutoff for positive-scoring molecules 3-fold increase, read-out: AK-based Prestwick Library Screening Results, K. pneumoniae (increase in extracellular AK activity).
[6] abbreviates: planktonic E. faecium, cutoff for positive-scoring molecules 3-fold increase, read-out: AK-based Prestwick Library Screening Results, E. faecium (increase in extracellular AK activity).
The mark [7] stands for this setting: planktonic S. aureus, cutoff for positive-scoring molecules 3-fold increase, read-out: AK-based Prestwick Library Screening Results, S. aureus (increase in extracellular AK activity).
The mark [8] stands for this setting: planktonic A. baumannii, cutoff for positive-scoring molecules 3-fold increase, read-out: AK-based Prestwick Library Screening Results, A. baumannii (increase in extracellular AK activity).
Where [9] appears, read: planktonic P. aeruginosa, cutoff for positive-scoring molecules 3-fold increase, read-out: AK-based Prestwick Library Screening Results, P. aeruginosa (increase in extracellular AK activity).

Counter-ions that a name gives are not always drawn. Like-named read-outs stand apart in the source and are kept apart here.

`Cn1c(=O)c2[nH]cnc2n(C)c1=O` [Theophylline monohydrate]: the fold induction at 50 µM was 1.2 in the assay with E. coli ([…], read-out: AK-based Prestwick Library Screening Results, E. coli (fold increase in extracellular AK activity)); 1.3 in the assay on E. cloacae ([…], read-out: AK-based Prestwick Library Screening Results, E. cloacae (fold increase in extracellular AK activity)); 1.1 with K. pneumoniae ([…], read-out: AK-based Prestwick Library Screening Results, K. pneumoniae (fold increase in extracellular AK activity)); 1 with E. faecium ([…], read-out: AK-based Prestwick Library Screening Results, E. faecium (fold increase in extracellular AK activity)); 1.3 in assay [1] ([…], read-out: AK-based Prestwick Library Screening Results, S. aureus (fold increase in extracellular AK activity)); 1.2 in assay [2] ([…], read-out: AK-based Prestwick Library Screening Results, A. baumannii (fold increase in extracellular AK activity)). Moreover, the fold induction at 50 µM in the assay on P. aeruginosa ([…], read-out: AK-based Prestwick Library Screening Results, P. aeruginosa (fold increase in extracellular AK activity)) came out at 1.2.

`COc1ccccc1N1CCN(CCCNc2cc(=O)n(C)c(=O)n2C)CC1` [Urapidil hydrochloride]: the fold induction at 50 µM in the assay on E. coli (planktonic, cutoff for positive-scoring molecules 3-fold increase, read-out: AK-based Prestwick Library Screening Results, E. coli (fold increase in extracellular AK activity)) turned out to be 1; in the assay on E. cloacae (planktonic, cutoff for positive-scoring molecules 3-fold increase, read-out: AK-based Prestwick Library Screening Results, E. cloacae (fold increase in extracellular AK activity)), 1.1; in the assay on K. pneumoniae (planktonic, cutoff for positive-scoring molecules 3-fold increase, read-out: AK-based Prestwick Library Screening Results, K. pneumoniae (fold increase in extracellular AK activity)), 0.7; in the assay on E. faecium (planktonic, cutoff for positive-scoring molecules 3-fold increase, read-out: AK-based Prestwick Library Screening Results, E. faecium (fold increase in extracellular AK activity)), 0.9; in assay [1] (planktonic, cutoff for positive-scoring molecules 3-fold increase, read-out: AK-based Prestwick Library Screening Results, S. aureus (fold increase in extracellular AK activity)), 0.9; in assay [2] (planktonic, cutoff for positive-scoring molecules 3-fold increase, read-out: AK-based Prestwick Library Screening Results, A. baumannii (fold increase in extracellular AK activity)), 1. The fold induction at 50 µM with P. aeruginosa (planktonic, cutoff for positive-scoring molecules 3-fold increase, read-out: AK-based Prestwick Library Screening Results, P. aeruginosa (fold increase in extracellular AK activity)) came out at 1.

`COc1cccc2c1C(=O)c1c(O)c3c(c(O)c1C2=O)C[C@@](O)(C(C)=O)C[C@@H]3O[C@H]1C[C@H](N)[C@H](O)[C@H](C)O1` [Daunorubicin hydrochloride]: the fold induction at 50 µM in the assay with E. coli (planktonic E. coli, […], read-out: AK-based Prestwick Library Screening Results, E. coli (increase in extracellular AK activity)) came to 0.9; with E. cloacae (planktonic E. cloacae, […], read-out: AK-based Prestwick Library Screening Results, E. cloacae (increase in extracellular AK activity)), 0.6; in the assay with K. pneumoniae (planktonic K. pneumoniae, […], read-out: AK-based Prestwick Library Screening Results, K. pneumoniae (increase in extracellular AK activity)), 0.5; with E. faecium (planktonic E. faecium, […], read-out: AK-based Prestwick Library Screening Results, E. faecium (increase in extracellular AK activity)), 2.3; in assay [1] (planktonic S. aureus, […], read-out: AK-based Prestwick Library Screening Results, S. aureus (increase in extracellular AK activity)), 2.1; in assay [2] (planktonic A. baumannii, […], read-out: AK-based Prestwick Library Screening Results, A. baumannii (increase in extracellular AK activity)), 0.6. For the same compound, the fold induction at 50 µM in the assay on P. aeruginosa (planktonic P. aeruginosa, […], read-out: AK-based Prestwick Library Screening Results, P. aeruginosa (increase in extracellular AK activity)) came out at 0.5.

In the case of `CC(=O)N(CC(O)CO)c1c(I)c(C(=O)NCC(O)CO)c(I)c(C(=O)NCC(O)CO)c1I` (centres unmarked) [Iohexol], the fold induction at 50 µM with E. coli (setting [3]) is 1; in the assay with E. cloacae (setting [4]) it was 1.1; in the assay with K. pneumoniae (setting [5]) it was 0.7; in the assay with E. faecium (setting [6]) it was 0.9; in assay [1] (setting [7]), 0.7; in assay [2] (setting [8]), 0.9. For the same compound, in the assay on P. aeruginosa (setting [9]), the fold induction at 50 µM is 0.8.

In the case of `CN1C[C@H](CO)C=C2c3cccc4[nH]cc(c34)C[C@H]21` [Lysergol], the “AK-based Prestwick Library Screening Results, E. coli (fold increase in extracellular AK activity)” value with E. coli (planktonic, […]) was 1.1. The “AK-based Prestwick Library Screening Results, E. cloacae (fold increase in extracellular AK activity)” value in the assay on E. cloacae (planktonic, […]) is given as 1.6. Also, the “AK-based Prestwick Library Screening Results, K. pneumoniae (fold increase in extracellular AK activity)” value with K. pneumoniae (planktonic, […]) is recorded as 0.8. In addition, in the assay on E. faecium (planktonic, […]), the “AK-based Prestwick Library Screening Results, E. faecium (fold increase in extracellular AK activity)” value worked out at 0.9. In addition, the “AK-based Prestwick Library Screening Results, S. aureus (fold increase in extracellular AK activity)” value in assay [1] (planktonic, […]) amounted to 0.9. In addition, the “AK-based Prestwick Library Screening Results, A. baumannii (fold increase in extracellular AK activity)” value in assay [2] (planktonic, […]) is 1.0. Besides, the “AK-based Prestwick Library Screening Results, P. aeruginosa (fold increase in extracellular AK activity)” value with P. aeruginosa (planktonic, […]) is listed as 1.1.

Turning to `CC(C)NCC(O)COc1ccc(CCOCC2CC2)cc1` (centres unmarked) [Betaxolol hydrochloride], the fold induction at 50 µM worked out at 1.2 with E. coli (planktonic, cutoff for positive 3-fold increase, read-out: AK-based Prestwick Library Screening Results, E. coli (fold increase in extracellular AK activity)); 1.6 in the assay on E. cloacae (planktonic, cutoff for positive 3-fold increase, read-out: AK-based Prestwick Library Screening Results, E. cloacae (fold increase in extracellular AK activity)); 1 with K. pneumoniae (planktonic, cutoff for positive 3-fold increase, read-out: AK-based Prestwick Library Screening Results, K. pneumoniae (fold increase in extracellular AK activity)); 0.9 in the assay on E. faecium (planktonic, cutoff for positive 3-fold increase, read-out: AK-based Prestwick Library Screening Results, E. faecium (fold increase in extracellular AK activity)); 0.9 in assay [1] (planktonic, cutoff for positive 3-fold increase, read-out: AK-based Prestwick Library Screening Results, S. aureus (fold increase in extracellular AK activity)); 1.4 in assay [2] (planktonic, cutoff for positive 3-fold increase, read-out: AK-based Prestwick Library Screening Results, A. baumannii (fold increase in extracellular AK activity)). Further, in the assay with P. aeruginosa (planktonic, cutoff for positive 3-fold increase, read-out: AK-based Prestwick Library Screening Results, P. aeruginosa (fold increase in extracellular AK activity)), the fold induction at 50 µM was found to be 1.1.

Consider `CO[C@H]1/C=C/O[C@@]2(C)Oc3c(C)c(O)c4c(c3C2=O)C2=NC3(CCN(CC(C)C)CC3)NC2=C(NC(=O)/C(C)=C\C=C\[C@H](C)[C@H](O)[C@@H](C)[C@@H](O)[C@@H](C)[C@H](OC(C)=O)[C@@H]1C)C4=O` [Rifabutin], for which the fold induction at 50 µM in the assay on E. coli (planktonic E. coli, positive cutoff 3-fold increase, read-out: AK-based Prestwick library screening result, E. coli (fold increase in extracellular AK activity)) worked out at 1.3; in the assay on E. cloacae (planktonic E. cloacae, positive cutoff 3-fold increase, read-out: AK-based Prestwick library screening result, E. cloacae (fold increase in extracellular AK activity)), 1.6; in the assay on K. pneumoniae (planktonic K. pneumoniae, positive cutoff 3-fold increase, read-out: AK-based Prestwick library screening result, K. pneumoniae (fold increase in extracellular AK activity)), 1.3; in the assay on E. faecium (planktonic E. faecium, positive cutoff 3-fold increase, read-out: AK-based Prestwick library screening result, E. faecium (fold increase in extracellular AK activity)), 1.2; in assay [1] (planktonic S. aureus, positive cutoff 3-fold increase, read-out: AK-based Prestwick library screening result, S. aureus (fold increase in extracellular AK activity)), 0.7; in assay [2] (planktonic A. baumannii, positive cutoff 3-fold increase, read-out: AK-based Prestwick library screening result, A. baumannii (fold increase in extracellular AK activity)) it was 3.3. Moreover, the fold induction at 50 µM with P. aeruginosa (planktonic P. aeruginosa, positive cutoff 3-fold increase, read-out: AK-based Prestwick library screening result, P. aeruginosa (fold increase in extracellular AK activity)) was 0.6.

On to `NC(=O)c1cnccn1` [Pyrazinamide], for which the fold induction at 50 µM in the assay with E. coli (setting [3]) worked out at 0.9; in the assay with E. cloacae (setting [4]), 1.2; with K. pneumoniae (setting [5]), 0.8; in the assay with E. faecium (setting [6]) it was 0.8; in assay [1] (setting [7]), 0.7; in assay [2] (setting [8]) it was 0.9. Moreover, the fold induction at 50 µM with P. aeruginosa (setting [9]) stood at 0.8.

For the origin of these results see patent publication US10004701B2, “Methods and compositions for treating infection” (UNIVERSITY OF ROCHESTER, priority 2012, dated 2018).
